Reference: ChEMBL document CHEMBL1201862, “PubChem BioAssay data set” (2004)
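Test compounds were applied to cells in 96-well plates for 48 hours at 5 doses. GI50: concentration for 50% inhibition of growth.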 Activity calls are given as the source filed them. No stated cut-off is given here; in the data, active = GI50 up to about 1.1 µM and inactive = higher.

What was measured:
Experiment in all cases: growth of human tumour cells (NCI), 48 h
[1] = system: HCT-15
[2] = system: HCC 2998
[3] = system: HT-29
[4] = system: HOP-62
[5] = system: SNB-75
[6] = system: SW-620
[7] = system: Malme-3M
[8] = system: OVCAR-8
[9] = system: SK-MEL-5
[10] = system: 786-0
[11] = system: HCT-116
[12] = system: CAKI-1
[13] = system: TK-10
[14] = system: RXF 393
[15] = system: RPMI-8226
[16] = system: T47D
[17] = system: NCI-H522
[18] = system: COLO 205
[19] = system: NCI-H226

| Compound | GI50 [1] | GI50 [2] | GI50 [3] | GI50 [4] | GI50 [5] | GI50 [6] | GI50 [7] | GI50 [8] | GI50 [9] | GI50 [10] | GI50 [11] | GI50 [12] | GI50 [13] | GI50 [14] | GI50 [15] | GI50 [16] | GI50 [17] | GI50 [18] | GI50 [19] |
| --- | --- | --- | --- | --- | --- | --- | --- | --- | --- | --- | --- | --- | --- | --- | --- | --- | --- | --- | --- |
| C/C=C/OC1C(C2COC(C)(C)O2)OC2OC(C)(C)OC21 (stereo unspecified) | > 100 µM | > 100 µM (inactive) | > 100 µM (inactive) | > 100 µM (inactive) | > 100 µM (inactive) | > 100 µM (inactive) | > 100 µM (inactive) | > 100 µM (inactive) | > 100 µM (inactive) | > 100 µM (inactive) | > 100 µM (inactive) | > 100 µM (inactive) | > 100 µM (inactive) | > 100 µM (inactive) | > 100 µM (inactive) | > 100 µM (inactive) | > 100 µM (inactive) |  |  |
| C1COC(NC(C2CC2)C2CC2)=N1 [RILMENIDINE] | > 100 µM | > 100 µM (inactive) | > 100 µM (inactive) |  | 31.1 µM (inactive) | > 100 µM (inactive) | > 100 µM (inactive) | > 100 µM (inactive) | > 100 µM (inactive) | > 100 µM (inactive) | > 100 µM (inactive) | > 100 µM (inactive) | > 100 µM (inactive) | > 100 µM (inactive) | > 100 µM (inactive) | > 100 µM (inactive) | > 100 µM (inactive) | > 100 µM (inactive) | > 100 µM (inactive) |
| CC(C)C(Br)C(=O)NCC(=O)O (stereo unspecified) | > 100 µM |  | > 100 µM (inactive) | > 100 µM (inactive) | > 100 µM (inactive) | > 100 µM (inactive) | > 100 µM (inactive) | > 100 µM (inactive) | > 100 µM (inactive) | > 100 µM (inactive) | > 100 µM (inactive) | > 100 µM (inactive) | > 100 µM (inactive) | > 100 µM (inactive) | > 100 µM (inactive) | > 100 µM (inactive) | > 100 µM (inactive) | > 100 µM (inactive) | > 100 µM (inactive) |
| CN1CC=C(c2c(N)nc(N)[nH]c2=O)CC1 | > 100 µM |  | > 100 µM (inactive) | > 100 µM (inactive) | 65.6 µM (inactive) | > 100 µM (inactive) | 80.2 µM (inactive) | > 100 µM (inactive) | > 100 µM (inactive) | > 100 µM (inactive) | > 100 µM (inactive) | > 100 µM (inactive) |  | > 100 µM (inactive) | > 100 µM (inactive) | > 100 µM (inactive) | > 100 µM (inactive) | > 100 µM (inactive) | > 100 µM (inactive) |
| CCC1c2[nH]c3ccccc3c2C[C@H]2C(=O)NC(CCCCNC(=O)OC(C)(C)C)C(=O)N12 (stereo partly specified) | 31 µM |  | 30.5 µM (inactive) | 35.4 µM (inactive) | 15.3 µM (inactive) | 47.2 µM (inactive) | 18 µM (inactive) | 33 µM (inactive) | 20.7 µM (inactive) | 22.2 µM (inactive) | 26.1 µM (inactive) | 25.9 µM (inactive) | 33.6 µM (inactive) | 30.5 µM (inactive) | 24.5 µM (inactive) | 31 µM (inactive) | 20.7 µM (inactive) | 29.9 µM (inactive) | > 100 µM (inactive) |
| C[C@]12CC(c3ccccc3O1)C(C(N)=O)C(=O)N2 (stereo partly specified) | > 100 µM | > 100 µM (inactive) | > 100 µM (inactive) | > 100 µM (inactive) | > 100 µM (inactive) | > 100 µM (inactive) | > 100 µM (inactive) | > 100 µM (inactive) | > 100 µM (inactive) | > 100 µM (inactive) | > 100 µM (inactive) | > 100 µM (inactive) |  | > 100 µM (inactive) | > 100 µM (inactive) | > 100 µM (inactive) | > 100 µM (inactive) | > 100 µM (inactive) | > 100 µM (inactive) |
| Nc1ccc(-c2nc3ccccc3s2)cc1C(F)(F)F | 13.4 µM |  | 15.5 µM (inactive) | 15.4 µM (inactive) | 14.5 µM (inactive) | 16.4 µM (inactive) | 15.8 µM (inactive) | 18.6 µM (inactive) | 15.5 µM (inactive) | 13.5 µM (inactive) | 13.4 µM (inactive) | 15.2 µM (inactive) | 13.1 µM (inactive) | 9.08 µM (inactive) | 16.5 µM (inactive) | 5.31 µM (inactive) | 16.8 µM (inactive) | 18.1 µM (inactive) |  |
| CN(NC(=O)c1ccco1)C1=NCCN1 | > 100 µM | > 100 µM (inactive) | > 100 µM (inactive) | > 100 µM (inactive) | > 100 µM (inactive) | > 100 µM (inactive) | > 100 µM (inactive) | > 100 µM (inactive) | > 100 µM (inactive) | > 100 µM (inactive) | > 100 µM (inactive) |  | > 100 µM (inactive) | > 100 µM (inactive) | > 100 µM (inactive) | > 100 µM (inactive) | > 100 µM (inactive) | > 100 µM (inactive) | > 100 µM (inactive) |
